# Measured values: patent publication US11168094B2, “Quinolinone derivative and pharmaceutical composition for preventing or treating allergic diseases such as asthma or atopic dermatitis including the quinolinone derivative as active ingredient” (Azcuris Co., Ltd., priority 2017, dated 2021)
# How the values were obtained:
# IL-33 [1] = biological target: T1, IL-33 (Homo sapiens, UniProt O95760); assay: Inhibition of IL-6 secretion by IL-33 inhibition in HMC-1 cells (IL-6 ELISA); format: cell-based; conditions: HMC1, HMC-1 cells with IL-33, 24 h, negative values indicate increased IL-6 secretion
# T1 sequence (O95760 95-270): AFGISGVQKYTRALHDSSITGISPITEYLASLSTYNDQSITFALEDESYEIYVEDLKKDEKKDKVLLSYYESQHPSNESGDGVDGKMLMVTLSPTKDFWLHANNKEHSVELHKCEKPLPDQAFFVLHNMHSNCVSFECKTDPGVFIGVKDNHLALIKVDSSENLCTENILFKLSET
# Description: First, HMC-1, a human mast cell line, was cultured until an appropriate number of cells was maintained in a 96-well plate. Mixtures of IL-33 and different concentrations (0.3, 3, and 30 μM) of each of the inventive compounds were treated on cells, incubated at 37° C. for 24 h, and centrifuged. The supernatants were analyzed for IL-6 secretion using an IL-6 ELISA kit (Biolegend, USA).
# TSLP-TSLPR interaction = biological target: T2, TSLP-TSLPR interaction (Homo sapiens, UniProt Q969D9); assay: ELISA-based TSLP-TSLPR interaction assay; format: binding; conditions: for inhibition at 100 µM: compound 0.1 mM; for inhibition at 100 µM / inhibition at 300 µM / inhibition at 1000 µM: FLAG-TSLP / TSLPR-His ELISA, OD 450 nm; for inhibition at 300 µM: compound 0.3 mM; for inhibition at 1000 µM: compound 1 mM
# T2 construct: made in house
# Description: To this end, home-made FLAG-TSLP protein and TSLPR-His protein were used to establish an ELISA-based TSLP-TSLPR interaction assay for measuring reactions with HRP. The inhibitory activities of the inventive compounds were evaluated by the interaction assay.
# ELISA assay was conducted using an Ni-NTA HisSorb plate (Qiagen, Germany). 100 μL of a solution of TSLPR C-terminally tagged with hexahistidine (His) was dispensed into each well of the plate and incubated at room temperature for 2 h. After each well was washed twice with 200 μL of PBS and 0.05% Tween-20, 100 μL of a solution of each of the inventive compounds as a sample and 100 μL of TSLP N-terminally tagged with FLAG was dispensed into the well. After incubation at 4° C. overnight, each well was washed twice and treated with 100 μL of a blocking buffer (PBS-0.05% Tween 20 and 1% nonfat dry milk). The plate was washed twice, coated with 100 μL of a monoclonal anti-FLAG horseradish peroxidase antibody (Sigma-Aldrich Co., USA) for 2 h, and incubated at room temperature. Then, each well was washed 5 times, treated with 200 μL of a solution of o-phenylenediaminedihydrochloride (Sigma-Aldrich Co., USA), incubated for 30 min, and added with 1 N HCl.
# Optical densities (ODs) were measured at 450 nm using a microplate spectrophotometer. The inhibitory effect of the compound on TSLP-TSLPR interaction was calculated using the following equation: Inhibition (inhibitory effect) (%)=(1−ODsample/ODcontrol)×100
# [2] = test system: HDM-induced allergic airway inflammation; assay: House dust mite (HDM)-induced allergic airway inflammation mouse models; format: in vivo; conditions: 200 μg intraperitoneal, BALB/c mice, day 11, vs untreated controls (FIG. 4 and 5)
# Description: Splenocytes were isolated from DO11.10 mice and ˜1×10^6CD4T cells were transferred to pure BALB/c mice by intravenous injection. For 3 days from the next day, 100 μg of a mixture of HDM (Dermatophagoidesfarinae 50 μg, Dermatophagoidespteronyssinus 50 μg, Greer Laboratories, Inc., USA) and OVA (Sigma-Aldrich Co., USA) was administered intranasally to the mice. From day 2 after administration, the mice were treated with 200 μg of each of the inventive compounds or PBS (for control mice) three times daily through the intraperitoneal route. After the mice were euthanized on day 11, the numbers of total cells and eosinophils in the airways were checked. The treatment schedule with the Formula 5 (KB 1517) and Formula 10 (KB 1518) (200 μg each) in house dust mite (HDM)-induced allergic airway inflammation mouse models is shown in FIG. 8.
# IL-33 [3] = biological target: T1, IL-33; assay: Inhibition of IL-6 secretion by IL-33 inhibition in HMC-1 cells (IL-6 ELISA); format: cell-based; conditions: HMC1, HMC-1 cells with IL-33, 24 h, negative values indicate increased IL-6 secretion; remark: listed apart in the source
Compound,inhibition at 0.3 µM (IL-33 [1]) [%],inhibition at 3 µM (IL-33 [1]) [%],inhibition at 100 µM (TSLP-TSLPR interaction) [%],inhibition at 300 µM (TSLP-TSLPR interaction) [%],number of eosinophils in the airways [2],number of total cells in the airways [2],inhibition at 1000 µM (TSLP-TSLPR interaction) [%],inhibition at 0.03 µM (IL-33 [3]) [%],Inhibition (%) (TSLP-TSLPR interaction; 1 mg/mL FLAG tag-free TSLP as competitor)
"CN(C)CCn1c(=O)c2nc(-c3ccc(Cl)cc3)oc2c2ccccc21 [Compound 4, 2-(4-chlorophenyl)-5-(2-(dimethylamino)ethyl)oxazolo[4,5-c]quinolin-4(5H)-one]",22.5,29.7,28.8,46.6,,,,,
"CN(C)CCn1c(=O)c2nc(-c3ccc(C(F)(F)F)cc3)oc2c2ccccc21 [Compound 5, 5-(2-(dimethylamino)ethyl)-2-(4-(trifluoromethyl)phenyl)oxazolo[4,5-c]quinolin-4(5H)-one]",30.4,28.2,23.2,29.6,significantly reduced,significantly reduced,,,
"CN(C)CCn1c(=O)c2nc(-c3ccccc3)oc2c2ccccc21 [Compound 2, 5-(2-(dimethylamino)ethyl)-2-phenyloxazolo[4,5-c]quinolin-4(5H)-one]",,-11.8,26.7,49,,,66.9,,
"COc1ccc(-c2nc3c(=O)n(CCN(C)C)c4ccccc4c3o2)cc1 [Compound 6, 5-(2-(dimethylamino)ethyl)-2-(4-methoxyphenyl)oxazolo[4,5-c]quinolin-4(5H)-one]",,-57.8,25.8,54.7,,,,,
"CN(C)CCOc1nc2ccccc2c2oc(-c3ccc(C(F)(F)F)cc3)nc12 [Compound 10, N,N-dimethyl-2-((2-(4-(trifluoromethyl)phenyl)oxazolo[4,5-c]quinolin-4-yl)oxy)ethanamine]",49.3,51.3,,,significantly reduced,significantly reduced,,32.7,
"CN(C)CCn1c(=O)c2nc(-c3ccc(F)cc3)oc2c2ccccc21 [Compound 3, 5-(2-(dimethylamino)ethyl)-2-(4-fluorophenyl)oxazolo[4,5-c]quinolin-4(5H)-one]",,29.8,17.7,27.5,,,,,
"FLAG tag-free TSLP: TSLP protein without FLAG tag, 1 mg/mL, competitor control in the TSLP-TSLPR ELISA [reference compound]",,,,,,,,,40.7
"CN(C)CCOc1nc2ccccc2c2oc(-c3ccccc3)nc12 [Compound 7, N,N-dimethyl-2-((2-phenyloxazolo[4,5-c]quinolin-4-yl)oxy)ethanamine]",,35.6,27.8,54.6,,,57.2,,
